Values quoted from earlier work in patent publication US4801604A (priority 1987, dated 1989).

Conditions: phenytoin and structurally related drugs

**Q.** For `O=C1NC(=O)C(c2ccccc2)(c2ccccc2)N1` [phenytoin], which “Side effects (in words)” value is on record?
**A.** The value was “hyperplasia of the gums, cerebellar degeneration, gastric distress and serious skin rashes”.
